Assay results: patent US10550120B2, “Indole alkaloid compound having immune checkpoint inhibitory action” (TOHOKU UNIVERSITY, priority 2016, dated 2020)

Key:
IL-10 = experiment: Measurement of human IL-10 amount in culture supernatant of MT2 cells with ELISA kit (Test 1); format: cell-based; settings: 48±2 hours; for activity at 10 µM / activity at 20 µM: Homo sapiens, 48 h, DMSO control = 100%, read-out: % against control (IL-10 production)
Protocol: (§1) MT2 cells from human adult T-cell leukemia were used. Leukemia cells of human adult T-cell leukemia (ATL) express CD4 and CD25 molecules on the cell surface and are considered to be derived from Treg (Chen S. et al., International Immunology 18:269-277 (2005)). MT2 cells were used in experiments as models of Treg since the cells are CD4 positive, CD25 positive, and FOXP3 positive celles derived from ATL.
(§2) The example compounds (compounds 1-17) of the present invention were dissolved in dimethylsulfoxide (DMSO) to prepare each 50 mmol/L solution, which was preserved at −80° C.
The amount of IL-10 production in the control and the example compounds was measured to evaluate the inhibitory effect on IL-10 production of the example compounds of the present invention.
(1) MT2 cells are suspended in RPMI1640 medium (hereinafter referred to as “the medium”) supplemented with 10% fetal calf serum (FCS) and 1% penicillin/streptomycin (P/S) to give 3×10^5 cells/mL suspension, and 1 mL of the suspension was added to each well of a 24-well plate. […] The cell cultures were incubated 48±2 hours in a CO2 incubator (under a condition of 37° C., 5 CO2). DMSO was diluted 50-fold with the medium, and 20 μL of the diluent was added to the well to make a control of compounds 1-7. In addition, DMSO was diluted 50-fold with the medium, and 25.0 μL of the diluent was added to the well to make a control of compounds 8-17.
(2) A piece of the cell culture was sampled to count cells with a cell counter (BIO RAD TC-20). The cell culture was centrifuged at 300×g for 5 minutes and the supernatant was collected as a sample for IL-10 measurement. When not measured within a day, it was preserved in a freezer at −80° C.
(3) Human IL-10 ELISA kit II (BD OptEIA) was used on the measurement. The kit contains wells treated with anti-IL-10 antibody (8 wells/strip), Standard/Sample diluent, vials comprising freeze-dried IL-10 Standard (1280 pg/vial), ELISA diluent, 20× Wash Buffer, Detection antibody, Enzyme Concentrate, TMB One Step Substrate Reagent, Stop Solution, and cover sheets.
(4) To a vial containing IL-10 Standard was added […] Standard/Sample diluent, and the vial was stood at room temperature for 15 minutes to be dissolved (Standard sample stock solution 1L-10 concentration: 500 pg/mL).
(5) Standard samples in each concentration for making a standard curve were prepared as follows. Firstly, to 300 μL of the medium was added 300 μL of the standard sample stock solution, and the mixture was mixed with a Voltex mixer (250 pg/mL). Next, 300 μL of the standard sample of 250 pg/mL was added to 300 μL of the medium and the mixture was mixed with a Voltex mixer (125 pg/mL). The same procedures were successively repeated to prepare standard solutions of 62.5, 31.25, 15.625, and 7.8125 pg/mL. As 0 pg/mL standard solution, the medium was used.
(6) A kit containing wells treated with anti-IL-10 antibody (8 wells/strip) was warmed to room temperature and 50 μL of ELISA diluent in the kit was added into each well.
(7) To each well containing ELISA diluent, 100 μL of the standard samples of each concentration and each test sample (diluded 50-100 fold with medium) were added.
(8) After the wells were sealed with a cover sheet and gently tapped, they were left at room temperature for 2 hours.
(9) 20× Wash Buffer was diluted 20-fold with water to prepare 1× Wash Buffer.
(10) After the reaction was done for 2 hours, the solutions in each well were aspirated and washed 5 times with 300 μL of 1× Wash Buffer.
(11) After Enzyme Concentrate (4 μL per 8 wells) was added to Detection antibody (1 ml per 8 wells), the solution was mixed by a Vortex mixer and then a necessary amount of Working Detector was prepared.
(12) 100 μL of Working Detector was added to each well, covered with a cover sheet, and the wells were left at room temperature for an hour.
(13) After the reaction was done for an hour, the solutions in wells were aspirated and washed 7 times with 300 μL of 1× Wash Buffer. […]

CTLA-4 = experiment: Intracellular staining of MT2 cells with fluorescence-labeled anti-CTLA-4 antibody and measurement by flow cytometry; format: cell-based, human; settings: 48±2 hours; for Peak MFI of CTLA-4: isotype IgG2a subtracted, average of n=3
Protocol: as §1, §2
(1) MT2 cells were suspended in RPMI1640 medium (hereinafter referred to as “the medium”) supplemented with 10% fetal calf serum (FCS) and 1° penicillin/streptomycin (P/S) to give 3×10^5 cells/mL suspension and 3 mL of the suspension was added to each well of a 6-well plate. To each well were added 0.6 or 1.2 μL of the test compound solutions (compounds 1, 2, and 4), 0.75 or 1.5 μL of the test compound solution (compound 9), and 1.5 μL of the test compound solutions (compounds 8 and 10-17), and the cell cultures were incubated in a CO2 gas incubator (under 37° C., 5% CO2) and cultured for 48±2 hours. As a control of compound 1, 2 and 4, only 1.2 μL of DMSO was added to the well. In addition, as a control of compound 8-17, only 1.5 μL of DMSO was added to the well.
(2) A piece of the cell culture was sampled to count cells with a cell counter (BIO RAD TC-20). The cell culture was centrifuged at 300×g for 5 min, and the supernatant was removed. The residue was suspended in phosphate buffered saline (supplemented with 1% bovine serum albumin (BSA), without calcium and magnesium) (1% BSA/PBS) to adjust the concentration of cells to 5-10×10^6 cells/mL.
(3) To 5 ml tube, each 50 μL of the cell suspension was added.
(4) Foxp3/Transcription Factor Fix/Perm Concentrate (4×) (Cat. No. TNB-1020-L050) (Solution A) in FOXP3/Transcription Factor Staining kit (TONBO biosciences) was diluted with Foxp3/Transcription Factor Fix/Perm Diluent (1×) (Cat. No. TNB-1022-L160) (for dilution of Solution A) to prepare 1× Solution A.
(5) 1 mL of 1× Solution A was added to each tube and mixed by gentle pipetting. Subsequently, it was left at room temperature for 30 min, centrifuged at 300×g for […], and the supernatant was discarded.
(6) Flow Cytometry Perm Buffer (10×) (Cat. No. TNB-1213-L150) (Solution B) in the kit was diluted 10-fold with water to prepare 1× Solution B.
(7) 2 mL of 1× Solution B was added to the tube and centrifuged at 300×g for 5 min. The supernatant was discarded. 2 μL of 2% normal mouse serum/PBS was added to the tube and the tube was gently pipetted. Subsequently, it was left at room temperature for 15 min.
(8) In the CTLA-4 measurement, 20 μL of anti-CTLA-4 antibody (BECKMAN COULTER, CD152-PE clone BN13I M2282) or mouse IgG2a (BECKMAN COULTER, IgG2a (Mouse)-PE A09142) for the control was added to the tube and the tube was gently stirred. Subsequently, it was left in the dark at room temperature for 30 min, and 2 mL of the 1× Solution B was added thereto, the mixture was centrifuged at 300×g for 5 min, and the supernatant was discarded. 2 mL of the 1× Solution B was added to the tube again, the mixture was centrifuged at 300×g for 5 min, and the supernatant was discarded.
(9) Within 2 hours after the solution in the tube was suspended in 0.5 mL of 1% BSA/PBS, and the fluorescence at 577 nm was measured with 488 nm excitation with a flow cytometer (Sony: Cell Sorter SH800). The results were analyzed with software, FlowJo (Tree Star Inc.). The mean peak fluorescence intensity (MFI) of CTLA-4 and mean peak fluorescence intensity of isotype control IgG2a were calculated from histgrams of the measured fluorescence intensity and number of cells, and mean fluorescence intensity of IgG2a was subtracted from that of CTLA-4. Experiments were conducted in n=3, and the average values were shown.

Structure (SMILES) | IL-10 (ng/10^6 cells) ± standard deviate (n = 3) (IL-10; 10 μmol/L) [ng/10^6 cells] | IL-10 (ng/10^6 cells) ± standard deviate (n = 3) (IL-10; 20 μmol/L) [ng/10^6 cells] | activity at 10 µM (IL-10; 10 μmol/L) [%] | activity at 20 µM (IL-10; 20 μmol/L) [%] | Peak MFI of CTLA-4 (CTLA-4; 10 μmol/L) | Peak MFI of CTLA-4 (CTLA-4; 20 μmol/L) | activity at 10 µM (CTLA-4; Homo sapiens, 48 h, 10 μmol/L, DMSO control = 100%, read-out: % against control (CTLA-4 expression)) [%] | activity at 20 µM (CTLA-4; Homo sapiens, 48 h, 20 μmol/L, DMSO control = 100%, read-out: % against control (CTLA-4 expression)) [%]
COC(=O)C1=CN(CCc2c[nH]c3ccccc23)C=C2[C@@H]1CC(OC)O[C@H]2C (stereo partly drawn) [Compound 3] | 14.8 ± 0.3 | 11.8 ± 0.3 | 80 | 63.7 | – | – | – | –
COC(=O)C1=CN2CCc3c([nH]c4ccccc34)[C@H]2[C@@H]2C(CO)=CC[C@H]12 [Compound 4] | 8.0 ± 0.2 | 4.3 ± 0.5 | 42.9 | 23 | 796.0 | 621.0 | 93.4 | 72.9
COC(=O)C1=CN2CCc3c([nH]c4ccccc34)[C@@H]2[C@@]2(O)C(CO)=CC[C@H]12 [Compound 5] | 19.7 ± 0.2 | 14.9 ± 0.4 | 106 | 80.5 | – | – | – | –
COC(=O)C1=CN(CCc2c[nH]c3ccccc23)C(O)[C@H]2[C@@H]1C=CC2(O)CO (stereo partly drawn) [Compound 6] | 17.6 ± 0.7 | 15.2 ± 0.4 | 95.2 | 81.8 | – | – | – | –
CC1C(C=O)=C2CCOC(=O)C2=CN1CCc1c[nH]c2ccccc12 (stereo not drawn) [Compound 7] | 17.9 ± 0.6 | 15.4 ± 0.4 | 96.5 | 83.1 | – | – | – | –
